Source: publication PMC11420952, “A Chemical Approach to Assess the Impact of Post-translational Modification on MHC Peptide Binding and Effector Cell Engagement” (ACS Chemical Biology, 2024)
Where no end group is shown, it is not given here. [ ]: non-standard residue; d: D form. The star is where a group is joined. Biotin = O=C1N[C@H]2[C@H](CS[C@H]2CCCCC(=O)*)N1; Cit = NC(=O)NCCC[C@H](N)C(=O)O

Experiments:
H-2K^b [1] = biological target: T1, H-2K^b (Mus musculus, UniProt P01901); assay: cell-based; details: RMA-S cells, peptide 20 μM, APC anti-mouse H-2K^b antibody, flow cytometry; for effect of PTM on MHC binding versus the unmodified peptide (ovaWT or mbpWT): Figures 2B and 3B, mean ± SD n = 4, two-tailed t-test; for effect of PTM on MHC binding versus sarsWT: Figure 1C, mean ± SD n = 3, two-tailed t-test
T1 construct: endogenous in cells; host or cells: RMA-S cells (TAP-deficient)
T1 sequence (P01901 22-369): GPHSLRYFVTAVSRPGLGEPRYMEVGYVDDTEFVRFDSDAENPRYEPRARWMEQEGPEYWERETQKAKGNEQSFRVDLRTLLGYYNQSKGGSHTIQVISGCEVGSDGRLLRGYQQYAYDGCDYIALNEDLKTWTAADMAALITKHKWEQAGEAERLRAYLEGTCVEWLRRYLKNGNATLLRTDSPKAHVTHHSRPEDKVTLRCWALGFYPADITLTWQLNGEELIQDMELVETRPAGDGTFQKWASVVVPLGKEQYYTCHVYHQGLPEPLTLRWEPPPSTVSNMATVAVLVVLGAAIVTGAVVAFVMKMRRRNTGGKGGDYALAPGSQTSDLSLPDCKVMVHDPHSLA
T1 sequence (P01887 21-119 partner): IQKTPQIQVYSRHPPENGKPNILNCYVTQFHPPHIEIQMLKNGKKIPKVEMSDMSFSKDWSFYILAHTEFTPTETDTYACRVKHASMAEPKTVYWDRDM

[2] = system: OVA specific TCR of B3Z T cell hybridoma; assay: B3Z T cell activation with peptide-loaded RMA-S cells (NFAT-LacZ / CPRG); type: cell-based; details: RMA-S cells with peptide and B3Z T cells overnight, effector to target 1:1; β-galactosidase by CPRG, absorbance 570 nm; Figure 2C, mean ± SD n = 4
Description: To assess the impact of ovaWT PTMs on TCR recognition, we utilized the B3Z T cell hybridoma cell line that contains an OVA specific TCR along with a NFAT-LacZ reporter gene that encodes for β-galactosidase on an IL-2 inducible promoter.[79] Upon B3Z recognition of the OVA pMHC complex on RMA-S cells, IL-2 production promotes β-galactosidase expression, which can hydrolyze chlorophenol red-β-D-galactopyranoside (CPRG), and the resulting color change is representative of activation levels.
10^5 RMA-S cells were seeded in a treated 96 well plate at 37 °C overnight. The following day the culture media was replaced with media containing indicated concentration of peptide along with 10^5 B3Z cells in culture media and coincubated overnight. Cells were then spun down at 500xg for 5 min and washed with 1X PBS a total of two times. Lysis buffer containing 0.2% saponin, 500 μM CPRG reagent, 100 mM MgCl2, and 100 mM β-mercaptoethanol in 1X PBS was added to each well. After 2–4 h absorbance 570 was recorded using a BioTek Epoch 2 microplate reader.

MHC on RMA-S cells = assay: Mild acid elution of MHC-bound peptides from RMA-S cells and mass spectrometry; type: cell-based; details: 10^9 RMA-S cells, 20 μM peptide, mild acid elution pH 3.3, LC-MS/MS (LTQ-Orbitrap); Figures S5-S8
Protocol: We then sought to detect changes in peptide binding via a competition assay using the parent cell line (RMA) that has a competent TAP system. To this end, we performed a competition assay using the panel of OVA peptides barring PTM mark in live RMA cells. The assay was performed by coincubating RMA cells individually with PTM-modified peptides and also ovaFl (SIINFEK(FITC)L), in which the […] of lysine is modified with fluoresceine. ovaFl has long been utilized by the field to interrogate binding of untagged peptides for MHC molecules. A decrease in cellular fluorescence should indicate higher association levels with MHC molecules, thereby informing on the relative affinity of the PTM-modified molecules. Critically, this assay retains MHC molecules within a physiologically relevant context and this alternative readout should complement the RMA-S MHC stabilization assay. […]
The emitter tip of the analytical column was laser-pulled to produce an opening of 2–5 μm, and a 2 mm kasil frit was used in place of the irregular reverse phase (RP) resin. […] If the same precursor ion was selected three times or was detected twice within a 20-s repeat duration, the ion was dynamically excluded for 15 s. […]

H-2K^b [3] = biological target: T1, H-2K^b; details: reported in the literature; cited from earlier work

Biotinylated Lysine SIINFKEL: ovaWT with biotinylated lysine (SIINFK(Biotin)EL; not fully specified)
effect of PTM on MHC binding versus the unmodified peptide (ovaWT or mbpWT) (H-2K^b [1]): binding levels are altered but the change is not significant
effect of PTM on TCR recognition (B3Z activation) versus ovaWT [2]: reduction in TCR recognition

N-Acetyl ESIVRFPNI [sarsWT with N-terminus acetylation]
effect of PTM on MHC binding versus sarsWT (H-2K^b [1]): completely disrupted MHC binding

Citrullinated ESIVRFPNI: sarsWT with arginine to citrulline (R5) (ESIV[Cit]FPNI)
effect of PTM on MHC binding versus sarsWT (H-2K^b [1]): no significant effect

ovaK7m3: ovaWT with trimethylation of K7
effect of PTM on MHC binding versus the unmodified peptide (ovaWT or mbpWT) (H-2K^b [1]): does not disrupt binding
detection of MHC-bound peptide after elution from live RMA-S cells (MHC on RMA-S cells): detected by mass spectrometry

Phosphoserine SIINFEKL: ovaWT with phosphorylated N-terminal serine
effect of PTM on MHC binding versus the unmodified peptide (ovaWT or mbpWT) (H-2K^b [1]): significant decrease in MHC binding
effect of PTM on TCR recognition (B3Z activation) versus ovaWT [2]: reduction in TCR recognition

SNFVSAGI [cntPEP]
interaction with H-2K^b (negative control) (H-2K^b [3]): not interact appreciably

SIINFEKL [ovaWT, reference compound]
detection of MHC-bound peptide after elution from live RMA-S cells (MHC on RMA-S cells): clearly detected
